Test results taken from ChEMBL document CHEMBL5053546, “Peptidomimetic analogues of an Arg-Trp-x-x-Trp motif responsible for interaction of translocase MraY with bacteriophage ϕX174 lysis protein E” (Bioorg Med Chem, 2021).
In brackets after ≈: the same amount, converted by molar mass. Activity calls are given as the source filed them. The calls are words filed in the database; no cut-off is given here.

Tests used:
Escherichia coli [1] = test: Antibacterial activity against Escherichia coli K-12 assessed as reduction in bacterial growth incubated overnight by microplate reader analysis; assay type: functional
Escherichia coli [2] = test: Inhibition of MraY overexpressed in Escherichia coli membrane using UDP-MurNAc-L-Ala-gamma-D-Glu-L-Lys(N epsilon-dansyl)-D-Ala-D-Ala as substrate at 200 ug/ml by fluoresence enhancement assay; assay type: cell membranes; details: dose 200.0 µg/ml
Pseudomonas fluorescens = test: Antibacterial activity against Pseudomonas fluorescence Pf-5 assessed as reduction in bacterial growth incubated overnight by microplate reader analysis; assay type: functional
Bacillus subtilis [3] = test: Antibacterial activity against Bacillus subtilis W23 assessed as reduction in bacterial growth incubated overnight by microplate reader analysis; assay type: functional
Escherichia coli [4] = test: Bacteriocidal activity against Escherichia coli at 250 ug/ml incubated for 1 hr followed by alamar blue addition measured after 2 to 3 hrs by fluorescence based analysis; assay type: functional, organism-based; details: dose 250.0 µg/ml
Staphylococcus aureus = test: Antibacterial activity against Staphylococcus aureus MRSA JE2 USA300 assessed as reduction in bacterial growth by CLSI protocol based assay; assay type: functional
Acinetobacter baumannii = test: Antibacterial activity against multi drug resistant ESBL positive Acinetobacter baumannii NCTC 13420 assessed as reduction in bacterial growth by CLSI protocol based assay; assay type: functional
Pseudomonas aeruginosa [5] = test: Antibacterial activity against multi drug resistant Pseudomonas aeruginosa NCTC 13437 assessed as reduction in bacterial growth by CLSI protocol based assay; assay type: functional
Enterobacter cloacae = test: Antibacterial activity against ESBL positive Enterobacter cloacae NCTC 13405 assessed as reduction in bacterial growth by CLSI protocol based assay; assay type: functional
Klebsiella pneumoniae = test: Antibacterial activity against ESBL positive Klebsiella pneumoniae ATCC 700603 assessed as reduction in bacterial growth by CLSI protocol based assay
Escherichia coli [6] = test: Inhibition of Escherichia coli MraY overexpressed in Escherichia coli membrane using UDP-MurNAc-L-Ala-gamma-D-Glu-L-Lys(N epsilon-dansyl)-D-Ala-D-Ala as substrate at 200 uM by continuous fluoresence assay relative to control; assay type: cell membranes
Enterococcus faecalis = test: Antibacterial activity against high level aminoglycoside resistant Enterococcus faecalis ATCC 51299 assessed as reduction in bacterial growth by CLSI protocol based assay; assay type: functional
Escherichia coli [7] = test: Inhibition of Escherichia coli MraY overexpressed in Escherichia coli membrane using UDP-MurNAc-L-Ala-gamma-D-Glu-L-Lys(N epsilon-dansyl)-D-Ala-D-Ala and undecaprenyl phosphate as substrate assessed as reduction in lipid II synthesis at 200 uM incubated for 30 mins in presence of [3H]-UDPGlcNAc by liquid scintillation counting analysis relative to control; assay type: cell membranes
Escherichia coli [8] = test: Inhibition of MraY overexpressed in Escherichia coli membrane using UDP-MurNAc-L-Ala-gamma-D-Glu-L-Lys(N epsilon-dansyl)-D-Ala-D-Ala and undecaprenyl phosphate as substrate assessed as reduction in lipid II synthesis at 200 uM incubated for 30 mins in presence of [3H]-UDPGlcNAc by liquid scintillation counting analysis; assay type: cell membranes
Escherichia coli [9] = test: Inhibition of MraY overexpressed in Escherichia coli membrane using UDP-MurNAc-L-Ala-gamma-D-Glu-L-Lys(N epsilon-dansyl)-D-Ala-D-Ala as substrate at 200 uM by continuous fluoresence assay; assay type: cell membranes
[10] = Inhibition of MraY overexpressed in Escherichia coli membrane using UDP-MurNAc-L-Ala-gamma-D-Glu-L-Lys(N epsilon-dansyl)-D-Ala-D-Ala as substrate by continuous fluoresence assay; assay type: cell membranes
Pseudomonas aeruginosa [11] = test: Antibacterial activity against Pseudomonas aeruginosa assessed as reduction in bacterial growth by NCCLS protocol based broth dilution method; assay type: functional
Escherichia coli [12] = test: Antibacterial activity against Escherichia coli K-12 assessed as reduction in bacterial growth by NCCLS protocol based broth dilution method; assay type: functional
Bacillus subtilis [13] = test: Antibacterial activity against Bacillus subtilis assessed as reduction in bacterial growth by NCCLS protocol based broth dilution method; assay type: functional
Escherichia coli [14] = test: Bacteriostatic activity against Escherichia coli at 250 ug/ml incubated for 1 hr followed by alamar blue addition measured after 2 to 3 hrs by fluorescence based analysis; assay type: functional, organism-based; details: dose 250.0 µg/ml

Row | SMILES | MIC50 (Escherichia coli [1]) | inhibition (Escherichia coli [2]) | MIC50 (Pseudomonas fluorescens) | MIC50 (Bacillus subtilis [3]) | MIC50 (Staphylococcus aureus) | MIC50 (Acinetobacter baumannii) | MIC50 (Pseudomonas aeruginosa [5]) | MIC50 (Enterobacter cloacae) | MIC50 (Klebsiella pneumoniae) | MIC50 (Enterococcus faecalis) | also measured
1 | CCCCCCCCCCOC(=O)[C@H](Cc1c[nH]c2ccccc12)NC(=O)[C@@H](N)CCCNC(=N)N | 3 µg/mL (≈ 5.99 µM) | inactive | 3 µg/mL (≈ 5.99 µM) | 8 µg/mL (≈ 16 µM) | – | – | – | – | – | – | –
2 | CCCCCCCCOC(=O)[C@H](Cc1c[nH]c2ccccc12)NC(=O)[C@H](CCCNC(=N)N)NC(C)=O | 42 µg/mL (≈ 81.6 µM) | – | 19 µg/mL (≈ 36.9 µM) | 9 µg/mL (≈ 17.5 µM) | – | – | – | – | – | – | –
3 | CCCCCCCCOC(=O)[C@H](Cc1c[nH]c2ccccc12)NC(=O)[C@@H](N)CCCNc1ncccn1 | 9 µg/mL (≈ 17.7 µM) | inactive | 45 µg/mL (≈ 88.5 µM) | 10 µg/mL (≈ 19.7 µM) | – | – | – | – | – | – | –
4 | CCCCCCCCNC(=O)[C@H](Cc1c[nH]c2ccccc12)NC(=O)[C@@H](N)CCCCN | 17 µg/mL (≈ 38.3 µM) | inactive | 26 µg/mL (≈ 58.6 µM) | 11 µg/mL (≈ 24.8 µM) | – | – | – | – | – | – | Activity (Escherichia coli [4]): Active
5 | CCCCCCOC(=O)[C@H](Cc1c[nH]c2ccccc12)NC(=O)[C@@H](N)CCCNC(=N)N | 37 µg/mL (≈ 83.2 µM) | inactive | 53 µg/mL (≈ 119 µM) | 13 µg/mL (≈ 29.2 µM) | – | – | – | – | – | – | –
6 | CCCCCCCCNC(=O)CNC(=O)[C@@H](N)CCCCN | 10 µg/mL (≈ 31.8 µM) | inactive | 18 µg/mL (≈ 57.2 µM) | 2 µg/mL (≈ 6.36 µM) | – | – | – | – | – | – | –
7 | CCCCCCC(=O)Nc1ccc(C(=O)N[C@@H](CCCCN)C(=O)OC)c(OCc2ccccc2)c1 | 8 µg/mL (≈ 16.1 µM) | – | 125 µg/mL (≈ 251 µM) | 44 µg/mL (≈ 88.4 µM) | > 256 µg/mL | > 256 µg/mL | > 256 µg/mL | > 256 µg/mL | > 256 µg/mL | 16 µg/mL (≈ 32.2 µM) | inhibition (Escherichia coli [6]): 36%
8 | CCCCCCCCNC(=O)[C@H](Cc1c[nH]c2ccccc12)NC(=O)[C@@H](N)CCCNC(=N)N | 3 µg/mL (≈ 6.36 µM) | inactive | 20 µg/mL (≈ 42.4 µM) | 7 µg/mL (≈ 14.8 µM) | – | – | – | – | – | – | Activity (Escherichia coli [4]): Active
9 | CCCCCCC(=O)N(CCc1c[nH]c2ccccc12)c1ccc(C(=O)N[C@@H](CCCCN)C(=O)OC)c(OCCc2c[nH]c3ccccc23)c1 | 4 µg/mL (≈ 5.76 µM) | – | > 125 µg/mL | 58 µg/mL (≈ 83.6 µM) | > 256 µg/mL | > 256 µg/mL | > 256 µg/mL | > 256 µg/mL | > 256 µg/mL | 16 µg/mL (≈ 23.1 µM) | inhibition (Escherichia coli [7]): 21%
10 | CCCCCCCCc1ccc(C(=O)N[C@@H](CCCNC(=N)N)C(=O)O)c(OCCc2c[nH]c3ccccc23)c1 | 30 µg/mL (≈ 54.6 µM) | – | > 125 µg/mL | 10 µg/mL (≈ 18.2 µM) | – | – | – | – | – | – | inhibition (Escherichia coli [8]): inactive; inhibition (Escherichia coli [9]): inactive
11 | CCCCCCC(=O)N(Cc1ccccc1)c1ccc(C(=O)N[C@@H](CCCCN)C(=O)OC)c(OCc2ccccc2)c1 | 7 µg/mL (≈ 11.9 µM) | – | 46 µg/mL (≈ 78.3 µM) | 12 µg/mL (≈ 20.4 µM) | > 256 µg/mL | > 256 µg/mL | > 256 µg/mL | > 256 µg/mL | > 256 µg/mL | 16 µg/mL (≈ 27.2 µM) | inhibition (Escherichia coli [6]): 62%; IC50 [10]: 140 µM
12 | CCCCCCCCOC(=O)[C@H](Cc1c[nH]c2ccccc12)NC(=O)[C@@H](N)CCCCN | 2 µg/mL (≈ 4.5 µM) | inactive | 5 µg/mL (≈ 11.2 µM) | 1 µg/mL (≈ 2.25 µM) | – | – | – | – | – | – | Activity (Escherichia coli [4]): Active
13 | CCCCCCCCOC(=O)[C@H](Cc1c[nH]c2ccccc12)NC(=O)[C@H](CCCNC(=N)N)NC(=O)OC(C)(C)C | 12 µg/mL (≈ 21 µM) | – | 21 µg/mL (≈ 36.7 µM) | 8 µg/mL (≈ 14 µM) | – | – | – | – | – | – | –
14 | CCCCCCC(=O)Nc1ccc(C(=O)N[C@@H](CCCCN)C(=O)OC)c(OCCc2c[nH]c3ccccc23)c1 | 28 µg/mL (≈ 50.8 µM) | – | 56 µg/mL (≈ 102 µM) | 28 µg/mL (≈ 50.8 µM) | > 256 µg/mL | > 256 µg/mL | > 256 µg/mL | > 256 µg/mL | > 256 µg/mL | 64 µg/mL (≈ 116 µM) | inhibition (Escherichia coli [7]): 12%
15 | CCCCCCCCOC(=O)[C@H](Cc1ccccc1)NC(=O)[C@@H](N)CCCNC(=N)N | 11 µg/mL (≈ 25.4 µM) | inactive | 64 µg/mL (≈ 148 µM) | 11 µg/mL (≈ 25.4 µM) | – | – | – | – | – | – | –
16 | CCCCCCCCOC(=O)[C@H](Cc1c[nH]c2ccccc12)NC(=O)[C@@H](N)CCCNC(=N)N | 5 µg/mL (≈ 10.6 µM) | inactive | 18 µg/mL (≈ 38.1 µM) | 13 µg/mL (≈ 27.5 µM) | > 256 µg/mL | > 256 µg/mL | > 256 µg/mL | > 256 µg/mL | > 256 µg/mL | > 256 µg/mL | MIC50 (Pseudomonas aeruginosa [11]): 40 µg/mL (≈ 84.6 µM); MIC50 (Escherichia coli [12]): 31 µg/mL (≈ 65.6 µM); MIC50 (Bacillus subtilis [13]): 8 µg/mL (≈ 16.9 µM); Activity (Escherichia coli [14]): Active
17 | CCCCCCC(=O)N(Cc1ccccc1)c1ccc(C(=O)N[C@@H](CCCCN)C(=O)OC)c(OCCc2c[nH]c3ccccc23)c1 | 4 µg/mL (≈ 6.24 µM) | – | > 125 µg/mL | 28 µg/mL (≈ 43.7 µM) | > 256 µg/mL | > 256 µg/mL | > 256 µg/mL | > 256 µg/mL | > 256 µg/mL | 8 µg/mL (≈ 12.5 µM) | inhibition (Escherichia coli [7]): 22%
18 | CCCCCCCCNC(=O)c1ccc(NC(=O)[C@@H](N)CCCNC(=N)N)c(OCCc2c[nH]c3ccccc23)c1 | > 125 µg/mL | – | > 125 µg/mL | 10 µg/mL (≈ 17.7 µM) | – | – | – | – | – | – | inhibition (Escherichia coli [8]): inactive; inhibition (Escherichia coli [9]): inactive
19 | CCCCCCCCOC(=O)[C@H](Cc1c[nH]c2ccccc12)NC(=O)[C@@H](N)Cc1cnc[nH]1 | 8 µg/mL (≈ 17.6 µM) | inactive | 21 µg/mL (≈ 46.3 µM) | 12 µg/mL (≈ 26.5 µM) | 16 µg/mL (≈ 35.3 µM) | 64 µg/mL (≈ 141 µM) | 8 µg/mL (≈ 17.6 µM) | 32 µg/mL (≈ 70.5 µM) | 64 µg/mL (≈ 141 µM) | 8 µg/mL (≈ 17.6 µM) | –
20 | CCCCCCCCOC(=O)[C@H](Cc1ccc(O)cc1)NC(=O)[C@@H](N)CCCNC(=N)N | 118 µg/mL (≈ 262 µM) | inactive | 124 µg/mL (≈ 276 µM) | 25 µg/mL (≈ 55.6 µM) | – | – | – | – | – | – | –
